Source: patent US7348334B2, “Monocyclic derivatives of aryl alkanoic acids and their use in medicine: process for their preparation and pharmaceutical compositions containing them” (Dr. Reddy's Laboratories Limited, priority 2001, dated 2008)
Where a name gives a salt, the structure may show the parent alone.

Legend:
[1] = system: C57BL/KsJ-db/db mice; assay: Blood sugar and triglyceride lowering in db/db mice; assay type: in vivo, mouse; settings: 10 mg/kg oral gavage daily for 6 days
Excerpt: Mutation in colonies of laboratory animals and different sensitivities to dietary regimens have made the development of animal models with non-insulin dependent diabetes and hyperlipidemia associated with obesity and insulin resistance possible. Genetic models such as db/db and ob/ob (Diabetes, (1982) 31(1): 1-6) mice and zucker fa/fa rats have been developed by the various laboratories for understanding the pathophysiology of disease and testing the efficacy of new antidiabetic compounds (Diabetes, (1983) 32: 830-838; Annu. Rep. Sankyo Res. Lab. (1994). 46: 1-57). The homozygous animals, C57 BL/KsJ-db/db mice developed by Jackson Laboratory, US, are obese, hyperglycemic, hyperinsulinemic and insulin resistant (J. Clin. Invest., (1990) 85: 962-967), whereas heterozygous are lean and normoglycemic. In db/db model, mouse progressively develops insulinopenia with age, a feature commonly observed in late stages of human type II diabetes when blood sugar levels are insufficiently controlled. The state of pancreas and its course vary according to the models. Since this model resembles that of type II diabetes mellitus, the compounds of the present invention were tested for blood sugar and triglycerides lowering activities.
[…] C57BL/KsJ-db/db mice of 8 to 14 weeks age, having body weight range of 35 to 60 grams, bred at Dr. Reddy's Research Foundation (DRF) animal house, were used in the experiment. The mice were provided with standard feed (National Institute of Nutrition (NIN), Hyderabad, India) and acidified water, ad libitum. The animals having more than 350 mg/dl blood sugar were used for testing. The number of animals in each group was 4.
Test compounds were suspended on 0.25% carboxymethyl cellulose and administered to test group at a dose of 0.001 mg to 30 mg/kg through oral gavage daily for 6 days. The control group received vehicle (dose 10 ml/kg). On 6th day the blood samples were collected one hour after administration of test compounds/vehicle for assessing the biological activity.
The random blood sugar and triglyceride levels were measured by collecting blood (100 μl) through orbital sinus, using heparinised capillary in tubes containing EDTA which was centrifuged to obtain plasma. The plasma glucose and triglyceride levels were measured spectrometrically, by glucose oxidase and glycerol-3-PO4 oxidase/peroxidase enzyme (Dr. Reddy's Lab. Diagnostic Division Kits, Hyderabad, India) methods respectively.
The blood sugar and triglycerides lowering activities of the test compound was calculated according to the formula.
(§1) 1. Percent reduction in Blood sugar/triglycerides/total cholesterol were calculated according to the formula: […]

[2] = target: T1, hPPARα (Homo sapiens, UniProt Q07869); assay: Determination of hPPARα activity (GAL4 fusion luciferase reporter in HEK-293 cells); assay type: cell-based; settings: compound at 50 μM
T1 construct: expressed in transfected cells; host or cells: HEK-293
T1 sequence (Q07869 239-466 limits assumed): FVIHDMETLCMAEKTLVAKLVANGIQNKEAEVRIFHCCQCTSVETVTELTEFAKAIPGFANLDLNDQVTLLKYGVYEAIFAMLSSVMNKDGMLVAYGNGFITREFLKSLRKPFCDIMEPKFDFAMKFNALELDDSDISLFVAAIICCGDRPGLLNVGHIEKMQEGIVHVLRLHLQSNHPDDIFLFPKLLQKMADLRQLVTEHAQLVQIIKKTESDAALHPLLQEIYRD
Description: a) Determination of hPPARα Activity:
Ligand binding domain of hPPARα was fused to DNA binding domain of Yeast transcription factor GAL4 in eucaryotic expression vector. Using superfect (Qiagen, Germany) as transfecting reagent HEK-293 cells were transfected with this plasmid and a reporter plasmid harboring the luciferase gene driven by a GAL4 specific promoter. Compound was added at different concentrations after 42 hrs of transfection and incubated overnight. Luciferase activity as a function of compound binding/activation capacity of PPARα was measured using Packard Luclite kit (Packard, USA) in Top Count (Ivan Sadowski, Brendan Bell, Peter Broag and Melvyn Hollis. Gene. 1992. 118: 137-141; Superfect Transfection Reagent Handbook. February 1997. Qiagen, Germany).

[3] = target: T2, hPPARγ1 (Homo sapiens, UniProt P37231); assay: Determination of hPPARγ activity (GAL4 fusion luciferase reporter in HEK-293 cells); assay type: cell-based; settings: compound at 1 μM
T2 construct: expressed in transfected cells; host or cells: HEK-293
T2 sequence (P37231 238-503 limits assumed): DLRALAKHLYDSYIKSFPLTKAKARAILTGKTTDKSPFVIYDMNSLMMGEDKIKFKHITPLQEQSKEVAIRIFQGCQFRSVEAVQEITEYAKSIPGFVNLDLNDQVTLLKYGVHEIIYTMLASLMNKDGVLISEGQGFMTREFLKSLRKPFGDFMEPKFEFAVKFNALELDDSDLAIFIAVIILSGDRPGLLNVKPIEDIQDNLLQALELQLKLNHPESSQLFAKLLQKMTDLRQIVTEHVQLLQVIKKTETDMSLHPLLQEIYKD
Description: b) Determination of hPPARγ Activity:
Ligand binding domain of hPPARγ1 was fused to DNA binding domain of Yeast transcription factor GAL4 in eucaryotic expression vector. Using lipofectamine (Gibco BRL, USA) as transfecting reagent HEK-293 cells were transfected with this plasmid and a reporter plasmid harboring the luciferase gene driven by a GAL4 specific promoter. Compound was added at 1 μM concentration after 48 hrs of transfection and incubated overnight.

[4] = system: Swiss albino mice; assay: Plasma triglyceride lowering activity in Swiss albino mice and guinea pigs; assay type: in vivo, mouse
Description: c) Plasma Triglyceride and Total Cholesterol Lowering Activity in Swiss Albino Mice and Guinea Pigs:
Male Swiss albino mice (SAM) and male Guinea pigs were obtained from NIN and housed in DRF animal house. All these animals were maintained under 12 hour light and dark cycle at 25±1° C. Animals were given standard laboratory chow (NIN, Hyderabad, India) and water, ad libitum. SAM of 20-25 g body weight range and Guinea pigs of 500-700 g body weight range were used (Oliver, P., Plancke, M. O., Marzin, D., Clavey, V., Sauzieres, J and Fruchart, J. C. Effects of fenofibrate, gemfibrozil and nicotinic acid on plasma lipoprotein levels in normal and hyperlipidemic mice. Atherosclerosis, 1988. 70: 107-114).
The test compounds were administered orally to Swiss albino mice at 0.3 to 30 mg/kg/day dose for 6 days. Control mice were treated with vehicle (0.25% Carboxymethylcellulose; dose 10 ml/kg). The test compounds were administered orally to Guinea pigs at 0.3 to 30 mg/kg/day dose for 6 days. Control animals were treated with vehicle (0.25% Carboxymethylcellulose; dose 5 ml/kg).
The blood samples were collected in fed state 1 hour after drug administration on 0 and 6 day of treatment. The blood was collected from the retro-orbital sinus through heparinised capillary in EDTA containing tubes. After centrifugation, plasma sample was separated for triglyceride and total cholesterol (Wieland, O. Methods of Enzymatic analysis. Bergermeyer, H. O., Ed., 1963. 211-214; Trinder, P. Ann. Clin. Biochem. 1969. 6: 24-27). Measurement of plasma triglyceride, total cholesterol and HDL were done using commercial kits (Dr. Reddy's Diagnostic Division, Hyderabad, India).
as §1

CCOC(=O)C(C)(C)Oc1ccc(C(=O)NCCn2c(CC)nc(-c3ccccc3)cc2=O)cc1 [Example 2]
melting point: 148 to 150 °C

CCOC(=O)C(C)(C)Oc1ccc(NC(=O)Cn2c(CC)nc(-c3ccccc3)cc2=O)cc1 [Example 4]
melting point: 128 to 130 °C

CCCCCCC(Oc1ccc(NC(=O)Cn2c(CC)nc(-c3ccccc3)cc2=O)cc1)C(=O)OCC (stereo not drawn) [Example 9]
melting point: 140 to 143 °C

CCCC(Oc1ccc(OCCn2c(CC)nc(-c3ccccc3)cc2=O)cc1)C(=O)OCC (stereo not drawn) [Example 16]
melting point: 80 to 82 °C

CCCC(Nc1ccc(OCCn2c(CC)nc(-c3ccccc3)cc2=O)cc1)C(=O)OCC (stereo not drawn) [Example 24]
melting point: 40 °C

CCCCCCCN(c1ccc(OCCn2c(CC)nc(-c3ccccc3)cc2=O)cc1)C(C)C(=O)OCC (stereo not drawn) [Example 25]
melting point: 88 to 89 °C

CCCCCCCN(C(=O)Cn1c(CC)nc(-c2ccccc2)cc1=O)c1ccc(SC(C(=O)O)C(C)C)cc1 (stereo not drawn) [Example 26, 2-[4-(2-Ethyl-6-oxo-4-phenyl-1,6-dihydropyrimidin-1-ylmethyl(heptyl)carboxamido)phenylsulfanyl}-3-methyl butanoic acid]
Reduction in Blood Glucose Level (%) [1]: 41%
Triglyceride Lowering (%) [1]: 45%

CCc1nc(-c2ccccc2)cc(=O)n1CCNC(=O)c1ccc(OC(C)(C)C(=O)O)cc1 [Example 27]
melting point: 210 °C

CCc1nc(-c2ccccc2)cc(=O)n1CC(=O)Nc1ccc(OC(C)(C)C(=O)O)cc1 [Example 29]
melting point: 120 °C

CCCCCCCN(C(=O)Cn1c(CC)nc(-c2ccccc2)cc1=O)c1ccc(OC(C)(C)C(=O)O)cc1 [Example 30]
Reduction in Blood Glucose Level (%) [1]: 34%
Triglyceride Lowering (%) [1]: 63%
melting point: 68 to 70 °C

CCc1nc(-c2ccccc2)cc(=O)n1CCOc1ccc(OC(C)(C)C(=O)O)cc1 [Example 31]
melting point: 158 to 160 °C

CCCC(Oc1ccc(OCCn2c(CC)nc(-c3ccccc3)cc2=O)cc1)C(=O)O (stereo not drawn) [Example 32]
melting point: 190 to 192 °C

CCc1nc(-c2ccccc2)cc(=O)n1CCOc1ccc(OC(C)(CC)C(=O)O)cc1 (stereo not drawn) [Example 33]
melting point: 159 to 161 °C

CCc1nc(-c2ccccc2)cc(=O)n1CCOc1ccc(NC(C)C(=O)O)cc1 (stereo not drawn) [Example 34]
melting point: 52 °C

CCc1nc(-c2ccccc2)cc(=O)n1CCOc1ccc(NC(C)C(=O)O)cc1 (stereo not drawn) [Example 35]
PPARα [2]: 6.2
melting point: 192 to 194 °C
PPARγ [3]: 2.2

CCCCCCCN(C(=O)Cn1c(CC)nc(-c2ccccc2)cc1=O)c1ccc(OC(C)(CC)C(=O)O)cc1 (stereo not drawn) [Example 36]
PPARα [2]: 7.5
melting point: 52 to 54 °C
PPARγ [3]: 1.2

CCCCCCCN(C(=O)Cn1c(CC)nc(-c2ccccc2)cc1=O)c1ccc(OC(CCC)C(=O)O)cc1 (stereo not drawn) [Example 37]
melting point: 48 to 50 °C

CCc1nc(-c2ccccc2)cc(=O)n1CCOc1ccc(NC(C)(C)C(=O)O)cc1 [Example 38]
melting point: 168 to 169 °C

CCCC(Nc1ccc(OCCn2c(CC)nc(-c3ccccc3)cc2=O)cc1)C(=O)O (stereo not drawn) [Example 39]
melting point: 155 to 157 °C

CCc1nc(-c2ccccc2)cc(=O)n1CCSc1ccc(OCC(=O)O)cc1 [Example 41]
melting point: 164 to 166 °C

CCCCCCCN(C(=O)Cn1c(CC)nc(-c2ccccc2)cc1=O)c1ccc(S[C@@H](CC(C)C)C(=O)O)cc1 [Example 43]
Reduction in Blood Glucose Level (%) [1]: 39%
Triglyceride Lowering (%) [1]: 43%
PPARα [2]: 6.7
melting point: 58 to 60 °C
Triglyceride Lowering (%) ([4]; 3 mg/kg orally for 6 days): 44%
PPARγ [3]: 2.2

CCc1nc(-c2ccccc2)cc(=O)n1CCOc1ccc(SC(C(=O)O)C(C)C)cc1 (stereo not drawn) [Example 44]
melting point: 64 °C
Triglyceride Lowering (%) ([4]; 3 mg/kg orally for 6 days): 36%

CCc1nc(-c2ccccc2)cc(=O)n1CC(=O)Nc1ccc(SC(C(=O)O)C(C)C)cc1 (stereo not drawn) [Example 45]
PPARα [2]: 7.2
melting point: 195 to 200 °C
PPARγ [3]: 0.8

CCc1nc(-c2ccccc2)cc(=O)n1CCNc1ccc(SC(CC)C(=O)O)cc1 (stereo not drawn) [Example 46]
PPARα [2]: 6.5
melting point: 118 °C
PPARγ [3]: 3.1

CCc1nc(-c2ccccc2)cc(=O)n1CCNc1ccc(SC(CC(C)C)C(=O)O)cc1 (stereo not drawn) [Example 47]
melting point: 62 to 64 °C

CCc1nc(-c2ccccc2)cc(=O)n1CCNc1ccc(SC(C(=O)O)C(C)C)cc1 (stereo not drawn) [Example 48]
melting point: 65 to 70 °C

CCCCCCCN(C(=O)Cn1c(CC)nc(-c2ccccc2)cc1=O)c1ccc(SC(CC)C(=O)O)cc1 (stereo not drawn) [Example 49, 2-[4-(2-Ethyl-6-oxo-4-phenyl-1,6-dihydropyrimidin-1-ylmethyl(heptyl)carboxamido)phenylsulfanyl}butanoic acid, arginine salt]
Triglyceride Lowering (%) ([4]; 10 mg/kg orally for 6 days): 69%

Cc1cccc(Nc2cc(Cl)nc(SCC(=O)O)n2)c1C [Wy 14643, reference compound]
PPARα [2]: 7
